Experimental data as given in article PMC9825645 (Traffic (Copenhagen, Denmark), 2022).

Target: T1, AMPH-1 (Amphiphysin 1) (Caenorhabditis elegans, UniProt Q21004)
T1 sequence (Q21004 1-461): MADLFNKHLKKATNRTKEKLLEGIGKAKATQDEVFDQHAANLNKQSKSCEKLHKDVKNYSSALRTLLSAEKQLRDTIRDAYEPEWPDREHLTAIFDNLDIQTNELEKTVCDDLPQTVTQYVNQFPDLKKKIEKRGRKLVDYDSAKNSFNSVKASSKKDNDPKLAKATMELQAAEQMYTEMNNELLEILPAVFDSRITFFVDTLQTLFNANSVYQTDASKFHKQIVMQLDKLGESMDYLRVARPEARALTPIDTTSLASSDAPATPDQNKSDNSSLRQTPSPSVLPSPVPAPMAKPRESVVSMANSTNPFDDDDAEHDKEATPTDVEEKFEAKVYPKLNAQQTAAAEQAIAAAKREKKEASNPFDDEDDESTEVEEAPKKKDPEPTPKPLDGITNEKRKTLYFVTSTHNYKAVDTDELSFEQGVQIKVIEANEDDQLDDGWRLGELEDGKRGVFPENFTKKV
Assay: membrane fission of PS liposomes by burst analysis spectroscopy
Assay type: biochemical
Conditions: 0.5 mM GDP, 1 μM AMPH-1, 30 min; stimulates fission

## Nc1nc2c(ncn2[C@@H]2O[C@H](COP(=O)(O)OP(=O)(O)O)[C@@H](O)[C@H]2O)c(=O)[nH]1 [GDP]
  membrane fission of PS liposomes by burst analysis spectroscopy: GDP stimulates fission to almost the same extent as seen in the presence of GTP
